{
  "source": "patent US20020103083A1",
  "about": "“Promoting deeper root development, reducing nitrogen fertilizer usage, imparting drought resistance, and increasing tolerance to adverse soil conditions in plants” (priority 2000, published 2002)",
  "test_system": "T. harzianum strain T-22",
  "experiment": "Effect of chemical seed treatments on subsequent root colonization by T-22",
  "format": "in vivo, Trichoderma harzianum",
  "conditions": "full rates of chemical seed treatment",
  "description": "In nearly all cases, the best results in direct-seeded field crops are obtained with an integration of chemical seed treatments and the deep root developing agents. […] This resistance permits the use of both the biological root colonizing agent and chemical seed protectants.",
  "data": [
    {"compound": "CN(C)C(=S)SSC(=S)N(C)C", "note": "[thiram]", "values": [
      {"measurement": "prevention of subsequent root colonization by T-22", "value": "exceptions"}
    ]},
    {"compound": "CC(C)(C)C(O)(CCc1ccc(Cl)cc1)Cn1cncn1", "note": "(centres unmarked) [tebuconazole]", "values": [
      {"measurement": "prevention of subsequent root colonization by T-22", "value": "exceptions"}
    ]}
  ]
}
